In patent US20250154112A1, “A PREPARATION OF QUINAZOLINEDIONES AND USE THEREOF” (COUNCIL OF SCIENTIFIC AND INDUSTRIAL RESEARCH AN INDIAN …, priority 2021, published 2025):
In brackets after ≈: the same amount, converted by molar mass.

Key:
Kinetic solubility = assay type: physicochemical; conditions: pH 7.4 phosphate buffer (PBS), aqueous buffer, kinetic from dmso stock, room temperature, 1.0% DMSO
Protocol: PBS sachet was dissolved in 0.9 L of Milli Q water and pH was adjusted to 7.4. Final volume was made up to 1 L with the water and stored at ambient temperature 21-25° C. […] 4 μL from the 50 mM stock solution were added to deep well plate containing 396 μL of pH 7.4 phosphate buffer, mixed and incubated for 24 hours at room temperature with constant mixing at 300 rpm. The plate was sealed well during the incubation process. After incubation, the samples were centrifuged for 20 min at 4000 rpm. The supernatant was analysed by HPLC-UV. The DMSO content in the sample was 1.0%. The final concentration of the compound in deep well plate was 500 μM.

Plasma stability assay = assay type: in vitro ADME; conditions: 1 μM, 37° C.
Protocol: 1 mM Stock of test compound was prepared from 10 mM initial stock solution of compounds by diluting 10 μL of 10 mM stock with 90 μL of DMSO. Then 10 μL of 1 mM stock was diluted with 90 μL of DMSO to give 100 μM concentration. The frozen plasma was thawed at room temperature and centrifuged at 1400 rpm at 4° C., for 15 minutes. Approximately 90% of the clear supernatant fraction was transferred to a separate tube and was used for the assay. Final working stock of 1 μM was prepared by diluting 3 μL of 100 μM with 297 μL of plasma. Plasma containing the test compound was incubated for 120 min at 37° C. in shaker with 500 rpm. 50 μL of aliquot of sample at 0, 15, 30, 60 and 120 minutes were precipitated with 150 μL of acetonitrile containing internal standard and centrifuged at 4000 rpm at 4° C. for 20 minutes. 120 μL of supernatant was diluted with 120 μL of water and analysed by LC-MS/MS.

HepG2 cells = assay: Confocal microscopy of lipid droplets in oleate induced HepG2 cells; assay type: cell-based; conditions: 250 μM oleate induction, 100 nM and 500 nM, 24 hours
Protocol: To select the compounds capable of inhibiting the ubiquitination of ATGL by COP1 by targeting the VP motif, confocal microscopy was performed with the provided molecules. If the compound was effective in inhibiting the interaction, there would have been a reduction in the number of fat droplets in the cells after treatment. […] With this rationale in mind, HepG2 cells were induced to accumulate lipid droplets after treatment with 250 μM of oleate and 10 μM of the specific compounds were added. The potential of the compounds to bring about a reduction in the number of fat droplets was then checked by comparison with oleate induced cells by counting number of droplets of approximately 20 cells from each treatment and calculating the average number of lipid droplets of each cell. The selected compounds were then subjected to dose dependent treatments and the ones which could maintain its potency to reduce fat droplets at lower doses were then selected for western blot analysis. The compound which could reduce the number of fat droplets in the cells were expected to raise the levels of ATGL since they were likely to deter COP1 from ubiquitinating ATGL. This increase was visible only in the protein level and gene expression was likely to remain unchanged since ubiquitination is a […] modification. […]

[1] = Determination of EC50 (in-vitro)
ATGL = assay: Western blot of ATGL level in primary mouse hepatocytes; assay type: cell-based; conditions: 10 nM to 500 nM, 24 hours, with respect to control
Protocol: To further strengthen the efficiency of the compound 62, primary hepatocytes were isolated from mice and these compounds were treated in a dose dependent manner for 24 hours. Primary hepatocytes and adipose tissue explants were isolated from mice and subjected to compound treatment for 24 hours at the doses of 10 nM, 20 nM, 50 nM, 100 nM and 500 nM. Post cell harvesting, western blot was carried out with the lysate to check the ATGL level. ATGL and COP1 antibodies were used. Actin served the purpose of a loading control.
Hepatocytes-2-4 months old chow-fed black male mouse (C57b1/6) was sacrificed using chloroform (SRL) and was cleaned with 70% ethanol. […] Blood was drawn from the heart in order to prevent backflow into liver while perfusion. The butterfly cannula was inserted into the PV and 20 ml of HBSS (Hank's Balanced Salt Solution; 5 mM KCl, 0.4 mM KH2PO4, 4 mM NaHCO3, 140 mM NaCl, 0.3 mM Na2HPO4, 6 mM Glucose, HEPES, 0.5 mM MgCl2.6H2O, 0.4 mM MgSO4·7H2O, 0.5 mM EDTA; not containing 1 mM CaCl2)) was allowed to pass through the liver (Perfusion) at a constant flow rate of 3 ml/min, maintained by Masterflex digital peristaltic pump (Cole-Parmer). The IVC was cut as soon as the passage of the buffer through the liver began, so that blood and perfusate from liver was drained through the IVC. The liver blanched and became pale in color upon this treatment. […]

Row | SMILES | solubility kinetic at 24 hours (Kinetic solubility) | Mean % remaining at 2 hrs in human Plasma (Plasma stability assay) | number of lipid droplets (HepG2 cells) | EC50 [1] | ATGL level (Western Blot) (ATGL)
1 | COCCn1c(=O)[nH]c2ccc(NC(=O)Nc3cccc(C(C)=O)c3)cc2c1=O [Compound 5, 1-(3-acetylphenyl)-3-(3-(2-methoxyethyl)-2,4-dioxo-1,2,3,4-tetrahydroquinazolin-6-yl)urea] | 0.8 µg/mL (≈ 2.02 µM) | 97.40% |  |  | 
2 | COCCn1c(=O)c2cc(NC(=O)Nc3cccc(C(C)=O)c3)ccc2n(CCN2CCCCC2)c1=O [Compound 62, 1-(3-acetylphenyl)-3-(3-(2-methoxyethyl)-2,4-dioxo-1-(2-(piperidin-1-yl)ethyl)-1,2,3,4-tetrahydroquinazolin-6-yl)urea] | 116 µg/mL (≈ 228 µM) | 26.18% | decrease in the number of lipid droplets | 45.7 nM | increased ATGL level
3 | COCCn1c(=O)c2cc(NC(=O)Nc3cccc(C(C)=O)c3)ccc2n(CCCN2CCOCC2)c1=O [Compound 94, 1-(3-acetylphenyl)-3-(3-(2-methoxyethyl)-1-(3-morpholinopropyl)-2,4-dioxo-1,2,3,4-tetrahydroquinazolin-6-yl)urea] | 89.9 µg/mL (≈ 172 µM) | 51.74% |  |  | 
